Assay results from patent US20090215783A1, “COMPOSITION FOR INDUCTION OR INHIBITION OF STEM CELL DIFFERENTIATION” (CHOONGWAE PHARMA CORPORATION, priority 2006, published 2009).

Tests used:
[1] = system: human bone marrow derived-mesenchymal stem cells (hBMMSC); assay: Osteogenesis modulating activity assay by test compound alone (ALP activity); type: cell-based; details: Homo sapiens, 168 h; hBMMSC, 20 μM test compound alone, six to seven days; read-out: Osteogenesis: fold change of ALP activity compared with DMSO control
Description: Cell culture: Human bone marrow derived-mesenchymal stem cells (hBMMSC) were isolated from normal subjects.
Osteogenesis modulating activity assay by test compound alone: hBMMSC were cultivated in the culture medium and cells were seeded into 96-well culture plates and test compounds were dissolved in DMSO and diluted with culture media (final 0.01% DMSO) and added into the media (final concentration of test compound was 20 μM) and cultured in the CO2 incubator (37° C., 5% CO2). Culture medium was changed every two days with fresh one and compound was treated again whenever medium was changed. Six to seven days after incubation, Alkaline phosphatase activity of cell lysates was measured by colorimetry. For the determination of mineralization within the cells, Von Kossa staining or Alizarin Red S assay was performed 10-14 days after incubation.

[2] = system: Mouse embryonic stem (ES) cells, TC1; assay: Cardiomyogenesis modulating activity assay (alpha-MHC promoter EGFP, embryoid bodies, FACS/fluorescence microscopy); type: cell-based; details: embryoid bodies treated for 5 days, FACS
Description: a. Cell culture: Mouse embryonic stem (ES) cells, TC1 derived from 129/S6 strain were cultured on irradiated feeder layer in the culture medium which is high-glucose DMEM (Gibco) BRL, Germany) supplemented with 15% FBS (Hyclone), 0.1 mM beta-mercaptoethanol, […] sodium pyruvate, 1 mM L-glutamine and 1× non-essential amino acids.
b. Establishment of alpha-MHC stably transformed ES cell line: A construct (FIG. 8) containing 1.8 kb promoter sequence of the mouse alpha-MHC gene between EcoRI and SalI sites of pEGFP-1 (Clontech Laboratories, Inc, CA, USA) was linearized at XhoI site, and was introduced into mouse ES cells, TC1, using the Gene Pulser II (BioRad, MA). A selection medium containing G418 was applied for two weeks from 24 hours after electroporation. The selected ES cell clones were harvested and expanded on the feeder cell layer. The green fluorescence-expressing clones when differentiated into cardiomyocytes were used in this experiment.
c. Cardiomyogenesis modulating activity assay: Embryoid body (EB) was formed by hanging drop culture using about a number of 600 (six hundred) ES cells for two days and it was further expanded by culturing in suspension condition on a Petri-dish for another two days. Then each EB was plated on a well of 96 well culture plates. Test compounds were dissolved in DMSO and diluted with culture media (final 0.05% DMSO) and EB was treated with test compound for 5 days. Culture medium was changed every three days after plating. Expression level of EGFP was measured with FACS (Beckman). For FACS analysis, differentiating cells were dissociated with trypsin. For the determination of the extent of differentiation, EB was observed and photographed with an inverted fluorescence microscope (Zeiss, Germany). Number of beating EBs was counted under the microscope and recorded once daily.

Compound: O=C1[C@H](CCc2ccccc2)N2C(=O)CN(Cc3ccccc3)N(C(=O)NCc3ccccc3)[C@H]2CN1CCc1ccc(Cl)cc1 [#75]
- fold induction at 20 µM [1]: 1.16
- Cardiomyogenesis: fold change of EGFP expression level compared with DMSO control [2]: 0.50 fold

Compound: COc1ccc(CN2C[C@H]3N(C(=O)CN(C)N3C(=O)NCc3ccccc3)[C@@H](C(C)C)C2=O)cc1 [#21]
- fold induction at 20 µM [1]: 1.21
- Cardiomyogenesis: fold change of EGFP expression level compared with DMSO control [2]: 0.62 fold

Compound: O=C1[C@H](CCc2ccccc2)N2C(=O)CN(Cc3ccc(F)cc3)N(C(=O)NCc3ccccc3)[C@H]2CN1Cc1cccc(C(F)(F)F)c1 [#64]
- fold induction at 20 µM [1]: 0.79
- Cardiomyogenesis: fold change of EGFP expression level compared with DMSO control [2]: 2.83 fold

Compound: C=CCN1CC(=O)N2[C@@H](Cc3ccccc3)C(=O)N(CCc3ccccc3)C[C@@H]2N1C(=O)NCc1ccccc1 [#87]
- fold induction at 20 µM [1]: 0.59
- Cardiomyogenesis: fold change of EGFP expression level compared with DMSO control [2]: 0.89 fold

Compound: CC(C)CN1C[C@H]2N(C(=O)CN(C)N2C(=O)NCc2ccccc2)[C@@H](c2ccccc2)C1=O [#18]
- fold induction at 20 µM [1]: 0.93
- Cardiomyogenesis: fold change of EGFP expression level compared with DMSO control [2]: 2.01 fold

Compound: CC(C)C[C@H]1C(=O)N(CC(=O)N(Cc2ccccc2)c2ccccc2)CC2N1C(=O)CN(C)N2C(=O)NCc1ccccc1 (stereo partly drawn) [#2]
- fold induction at 20 µM [1]: 1.09
- Cardiomyogenesis: fold change of EGFP expression level compared with DMSO control [2]: 1.11 fold

Compound: COc1ccc(C[C@H]2C(=O)N(Cc3cccc(C(F)(F)F)c3)C[C@H]3N2C(=O)CN(Cc2ccc(F)cc2)N3C(=O)NCc2ccccc2)cc1 [#65]
- fold induction at 20 µM [1]: 1.34
- Cardiomyogenesis: fold change of EGFP expression level compared with DMSO control [2]: 2.54 fold

Compound: O=C1[C@H](Cc2ccc(OCc3ccccc3)cc2)N2C(=O)CN(Cc3ccccc3)N(C(=O)NCc3ccccc3)[C@H]2CN1CCc1ccc(Cl)cc1 [#77]
- fold induction at 20 µM [1]: 0.98
- Cardiomyogenesis: fold change of EGFP expression level compared with DMSO control [2]: 1.40 fold

Compound: CCC(C)[C@H]1C(=O)N(CC2CCCCC2)C[C@H]2N1C(=O)N(C)N2C(=O)NCc1ccccc1 (stereo partly drawn) [#101]
- fold induction at 20 µM [1]: 1.28
- Cardiomyogenesis: fold change of EGFP expression level compared with DMSO control [2]: 2.32 fold

Compound: CC(C)C[C@H]1C(=O)N(CC(=O)N(c2ccccc2)c2cccc(Cl)c2)C[C@H]2N1C(=O)CN(C)N2C(=O)NCc1ccccc1 [#4]
- fold induction at 20 µM [1]: 0.59
- Cardiomyogenesis: fold change of EGFP expression level compared with DMSO control [2]: 0.40 fold

Compound: C=CCN1CC(=O)N2C(Cc3ccc(O)cc3)C(=O)N(Cc3ccc(F)cc3F)C[C@H]2N1C(=O)NCc1ccccc1 (stereo partly drawn) [#13]
- fold induction at 20 µM [1]: 0.47
- Cardiomyogenesis: fold change of EGFP expression level compared with DMSO control [2]: 1.02 fold

Compound: CC(C)CN1C[C@H]2N(C(=O)CN(C)N2C(=O)NCc2ccccc2)[C@@H](Cc2ccc(O)cc2)C1=O [#15]
- fold induction at 20 µM [1]: 1.12
- Cardiomyogenesis: fold change of EGFP expression level compared with DMSO control [2]: 0.41 fold

Compound: C#CCN1CC(=O)N2C(Cc3ccc(C)cc3)C(=O)N(CCCCCCC)C[C@@H]2N1C(=O)NCc1ccccc1 (stereo partly drawn) [#51]
- fold induction at 20 µM [1]: 0.31
- Cardiomyogenesis: fold change of EGFP expression level compared with DMSO control [2]: 0.49 fold

Compound: Cc1ccc(C[C@H]2C(=O)N(CCc3ccccc3)C[C@H]3N2C(=O)CN(C)N3C(=O)NCc2ccccc2)cc1 [#36]
- fold induction at 20 µM [1]: 1.55
- Cardiomyogenesis: fold change of EGFP expression level compared with DMSO control [2]: 0.54 fold

Compound: CN1CC(=O)N2C(CN(Cc3ccc(F)cc3)C(=O)[C@@H]2Cc2ccc(O)cc2)N1C(=O)NCc1ccccc1 (stereo partly drawn) [#9]
- fold induction at 20 µM [1]: 0.24
- Cardiomyogenesis: fold change of EGFP expression level compared with DMSO control [2]: 1.59 fold

Compound: CN1CC(=O)N2[C@@H](Cc3ccc(Cl)cc3)C(=O)N(CCc3ccccc3)C[C@@H]2N1C(=O)NCc1ccccc1 [#39]
- fold induction at 20 µM [1]: 0.79
- Cardiomyogenesis: fold change of EGFP expression level compared with DMSO control [2]: 0.29 fold

Compound: CCCCNC(=O)N1[C@H]2CN([C@@H](C)c3ccccc3)C(=O)[C@H](CC(C)C)N2C(=O)CN1Cc1ccc(C)cc1 [#46]
- fold induction at 20 µM [1]: 1.02
- Cardiomyogenesis: fold change of EGFP expression level compared with DMSO control [2]: 1.90 fold

Compound: O=C1[C@H](Cc2ccc(F)cc2)N2C(=O)CN(Cc3ccc(F)cc3)N(C(=O)NCc3ccccc3)[C@H]2CN1Cc1cccc(C(F)(F)F)c1 [#70]
- fold induction at 20 µM [1]: 1.03
- Cardiomyogenesis: fold change of EGFP expression level compared with DMSO control [2]: 0.92 fold

Compound: CCC(C)[C@H]1C(=O)N(Cc2cccc(Cl)c2)C[C@H]2N1C(=O)N(C)N2C(=O)NCc1ccccc1 (stereo partly drawn) [#109]
- fold induction at 20 µM [1]: 1
- Cardiomyogenesis: fold change of EGFP expression level compared with DMSO control [2]: 0.97 fold

Compound: C=CCOC(=O)NCCC[C@@H]1C(=O)N(Cc2ccc(OC)cc2)CC2N1C(=O)CN(C)N2C(=O)NCc1ccccc1 (stereo partly drawn) [#26]
- fold induction at 20 µM [1]: 1.01
- Cardiomyogenesis: fold change of EGFP expression level compared with DMSO control [2]: 1.74 fold

Compound: CCC(C)[C@H]1C(=O)N(Cc2cccc(F)c2)C[C@H]2N1C(=O)CN(Cc1ccccc1)N2C(=O)NCc1ccccc1 (stereo partly drawn) [#57]
- fold induction at 20 µM [1]: 0.64
- Cardiomyogenesis: fold change of EGFP expression level compared with DMSO control [2]: 0.43 fold

Compound: CN1C(=O)N2[C@@H](Cc3ccc(O)cc3)C(=O)N(Cc3cccc4ccccc34)C[C@@H]2N1C(=O)NCc1ccccc1 [#100]
- fold induction at 20 µM [1]: 1.11
- Cardiomyogenesis: fold change of EGFP expression level compared with DMSO control [2]: 1.35 fold

Compound: O=C1[C@H](CC2CCCCC2)N2C(=O)CN(Cc3ccccc3)N(C(=O)NCc3ccccc3)[C@H]2CN1CCc1ccc(Cl)cc1 [#79]
- fold induction at 20 µM [1]: 0.58
- Cardiomyogenesis: fold change of EGFP expression level compared with DMSO control [2]: 1.67 fold

Compound: O=C1[C@H](Cc2ccc(F)c(F)c2)N2C(=O)CN(Cc3ccccc3)N(C(=O)NCc3ccccc3)C2CN1CCc1ccc(Cl)cc1 (stereo partly drawn) [#81]
- fold induction at 20 µM [1]: 1.84
- Cardiomyogenesis: fold change of EGFP expression level compared with DMSO control [2]: 0.81 fold

Compound: CC(C)[C@H]1C(=O)N(Cc2cccc(F)c2)C[C@H]2N1C(=O)CN(Cc1ccccc1)N2C(=O)NCc1ccccc1 [#55]
- fold induction at 20 µM [1]: 0.98
- Cardiomyogenesis: fold change of EGFP expression level compared with DMSO control [2]: 1.26 fold

Compound: Cc1ccc(C[C@H]2C(=O)N(CCc3ccc(Cl)cc3)C[C@H]3N2C(=O)CN(Cc2ccccc2)N3C(=O)NCc2ccccc2)cc1 [#78]
- fold induction at 20 µM [1]: 0.75
- Cardiomyogenesis: fold change of EGFP expression level compared with DMSO control [2]: 1.70 fold

Compound: C=CCN1CC(=O)N2[C@@H](CC(C)C)C(=O)N(CCc3ccccc3)C[C@@H]2N1C(=O)NCc1ccccc1 [#86]
- fold induction at 20 µM [1]: 0.54
- Cardiomyogenesis: fold change of EGFP expression level compared with DMSO control [2]: 1.34 fold
